Assay results published in patent US6534524B1, “Indazole compounds and pharmaceutical compositions for inhibiting protein kinases, and methods for their use” (Agouron Pharmaceuticals, Inc., priority 1999, dated 2003).
pIC50: −log10 of the molar value.

Test system: human umbilical vein endothelial cells (HUVEC)
Experiment: HUVEC proliferation assay (VEGF-stimulated, MTT);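 for % inhibition of the proliferation of HUVEC: relative to VEGF-stimulated control minus starvation-medium baseline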
Type: cell-based
Conditions: for % inhibition: Library III, HUVEC proliferation, nominal concentration of 0.5 nM; for % inhibition / % inhibition of the proliferation of HUVEC: crude reaction mixtures
[1] = Library II, Y=S, 0.5 mM (column head; text: nominal 0.5 nM)
[2] = Library II, Y=S, 2 mM (column head; text: nominal 2 nM)
[3] = Library I, Y = CO, nominal concentration of 10 nM
[4] = Library I, Y = NH, nominal concentration of 10 nM
[5] = Library I, Y = O, nominal concentration of 10 nM

Structure (SMILES): O=C(Nc1ccncc1)c1ccccc1Sc1ccc2c(/C=C/c3ccccn3)n[nH]c2c1
- % inhibition: 6%

Structure (SMILES): O=C(Nc1nc2ccccc2s1)c1ccccc1Sc1ccc2c(/C=C/c3ccccn3)n[nH]c2c1
- % inhibition: −15%

Structure (SMILES): O=C(Nc1ccc(Cl)c(Cl)c1)c1ccccc1Sc1ccc2c(/C=C/c3ccccn3)n[nH]c2c1
- % inhibition: 8%

Structure (SMILES): O=C(Nc1c(F)cccc1F)c1ccccc1Sc1ccc2c(/C=C/c3ccccn3)n[nH]c2c1
- % inhibition: −31%

Structure (SMILES): NC(=O)c1cccc(NC(=O)c2ccccc2Sc2ccc3c(/C=C/c4ccccn4)n[nH]c3c2)c1
- % inhibition: 4%

Structure (SMILES): O=C(Nc1ccc2cn[nH]c2c1)c1ccccc1Sc1ccc2c(/C=C/c3ccccn3)n[nH]c2c1
- % inhibition: 7%

Structure (SMILES): O=C(O)CCNC(=O)c1ccccc1Sc1ccc2c(/C=C/c3ccccn3)n[nH]c2c1
- % inhibition of the proliferation of HUVEC [1]: 4%
- % inhibition of the proliferation of HUVEC [2]: 20%

Structure (SMILES): O=C(Nc1cc(O)[nH]n1)c1ccccc1Sc1ccc2c(/C=C/c3ccccn3)n[nH]c2c1
- % inhibition: −17%

Structure (SMILES): O=C(NC1CCS(=O)(=O)C1)c1ccccc1Sc1ccc2c(/C=C/c3ccccn3)n[nH]c2c1 (stereo not drawn)
- % inhibition of the proliferation of HUVEC [1]: 27%
- % inhibition of the proliferation of HUVEC [2]: 2%

Structure (SMILES): CC(C)C(NC(=O)c1ccccc1Sc1ccc2c(/C=C/c3ccccn3)n[nH]c2c1)C(C)C
- % inhibition of the proliferation of HUVEC [1]: 18%
- % inhibition of the proliferation of HUVEC [2]: −2%

Structure (SMILES): CCCCCC(C)NC(=O)c1ccccc1Sc1ccc2c(/C=C/c3ccccn3)n[nH]c2c1 (stereo not drawn)
- % inhibition of the proliferation of HUVEC [1]: −1%
- % inhibition of the proliferation of HUVEC [2]: 14%

Structure (SMILES): Cc1ccc(CNC(=O)c2ccccc2Sc2ccc3c(/C=C/c4ccccn4)n[nH]c3c2)cc1
- % inhibition of the proliferation of HUVEC [1]: 20%
- % inhibition of the proliferation of HUVEC [2]: 92%

Structure (SMILES): CSCCNC(=O)c1ccccc1Sc1ccc2c(/C=C/c3ccccn3)n[nH]c2c1
- % inhibition: 18%

Structure (SMILES): CC1CCCCN1CCCNC(=O)c1ccccc1Sc1ccc2c(/C=C/c3ccccn3)n[nH]c2c1 (stereo not drawn)
- % inhibition of the proliferation of HUVEC [1]: 25%
- % inhibition of the proliferation of HUVEC [2]: 15%

Structure (SMILES): O=C(Nc1cnccn1)c1ccc2c(-c3nc4ccccc4[nH]3)n[nH]c2c1 [drawing 595]
- % inhibition of the proliferation of HUVEC [3]: −11%
- % inhibition of the proliferation of HUVEC [4]: −7%
- % inhibition of the proliferation of HUVEC [5]: 52%

Structure (SMILES): COC(=O)c1nccnc1NC(=O)c1ccccc1Sc1ccc2c(/C=C/c3ccccn3)n[nH]c2c1
- % inhibition: 7%

Structure (SMILES): O=C(Nc1ccc(CO)cc1)c1ccccc1Sc1ccc2c(/C=C/c3ccccn3)n[nH]c2c1
- % inhibition: −18%

Structure (SMILES): NS(=O)(=O)c1ccc(CCNC(=O)c2ccccc2Sc2ccc3c(/C=C/c4ccccn4)n[nH]c3c2)cc1
- % inhibition of the proliferation of HUVEC [1]: 26%
- % inhibition of the proliferation of HUVEC [2]: 37%

Structure (SMILES): O=C(Nc1nncs1)c1ccccc1Sc1ccc2c(/C=C/c3ccccn3)n[nH]c2c1
- % inhibition of the proliferation of HUVEC [1]: 44%
- % inhibition of the proliferation of HUVEC [2]: 28%

Structure (SMILES): O=C(Nc1ccncc1)c1ccc2c(-c3nc4ccccc4[nH]3)n[nH]c2c1
- % inhibition of the proliferation of HUVEC [3]: 33%
- % inhibition of the proliferation of HUVEC [4]: 13%
- % inhibition of the proliferation of HUVEC [5]: 42%

Structure (SMILES): O=C(Nc1ccc(F)cc1)c1ccccc1Sc1ccc2c(/C=C/c3ccccn3)n[nH]c2c1
- % inhibition: −1%

Structure (SMILES): O=C(Nc1ncc(Cl)s1)c1ccccc1Sc1ccc2c(/C=C/c3ccccn3)n[nH]c2c1
- % inhibition: −29%

Structure (SMILES): CSCCCNC(=O)c1ccccc1Sc1ccc2c(/C=C/c3ccccn3)n[nH]c2c1
- % inhibition of the proliferation of HUVEC [1]: 44%
- % inhibition of the proliferation of HUVEC [2]: 100%

Structure (SMILES): CC(C)c1ccc(NC(=O)c2ccccc2Sc2ccc3c(/C=C/c4ccccn4)n[nH]c3c2)cc1
- % inhibition: −12%

Structure (SMILES): O=C(Nc1cccc2cc(O)ccc12)c1ccccc1Sc1ccc2c(/C=C/c3ccccn3)n[nH]c2c1
- % inhibition: −22%

Structure (SMILES): CNNC(=O)c1ccccc1Sc1ccc2c(/C=C/c3ccccn3)n[nH]c2c1
- % inhibition of the proliferation of HUVEC [1]: 13%
- % inhibition of the proliferation of HUVEC [2]: 31%

Structure (SMILES): CS(=O)(=O)c1ccc(NC(=O)c2ccccc2Sc2ccc3c(/C=C/c4ccccn4)n[nH]c3c2)cc1
- % inhibition: 19%

Structure (SMILES): O=C(Nc1ccc(O)cc1Cl)c1ccccc1Sc1ccc2c(/C=C/c3ccccn3)n[nH]c2c1
- % inhibition: 7%

Structure (SMILES): CCC(CO)(CO)NC(=O)c1ccccc1Sc1ccc2c(/C=C/c3ccccn3)n[nH]c2c1
- % inhibition: 61%

Structure (SMILES): C[n+]1ccc(NC(=O)c2ccccc2Sc2ccc3c(/C=C/c4ccccn4)n[nH]c3c2)cc1
- % inhibition: 0%

Structure (SMILES): CN(CCCNC(=O)c1ccccc1Sc1ccc2c(/C=C/c3ccccn3)n[nH]c2c1)c1ccccc1
- % inhibition of the proliferation of HUVEC [1]: 18%
- % inhibition of the proliferation of HUVEC [2]: 25%

Structure (SMILES): CCCCCc1ccc(NC(=O)c2ccccc2Sc2ccc3c(/C=C/c4ccccn4)n[nH]c3c2)cc1
- % inhibition: 13%

Structure (SMILES): O=C(Nc1ccc2[nH]nnc2c1)c1ccccc1Sc1ccc2c(/C=C/c3ccccn3)n[nH]c2c1
- % inhibition: −7%

Structure (SMILES): O=C(Nc1ccc(C(F)(F)F)cn1)c1ccccc1Sc1ccc2c(/C=C/c3ccccn3)n[nH]c2c1
- % inhibition: 20%

Structure (SMILES): CNCCNC(=O)c1ccccc1Sc1ccc2c(/C=C/c3ccccn3)n[nH]c2c1 [Example 35(gg), 6-[2-(2-(Methylamino)ethylcarbamoyl)phenylsulfanyl]-3-E-[2-(pyridin-2-yl)ethenyl]-1H-indazole]
- pIC50 (Homo sapiens, HUVEC, + albumin, read-out: HUVEC + albumin IC50): < 7.00

Structure (SMILES): O=C(Nc1cccc2c(O)cccc12)c1ccccc1Sc1ccc2c(/C=C/c3ccccn3)n[nH]c2c1
- % inhibition: 4%

Structure (SMILES): O=C(Nc1cccc2ncccc12)c1ccccc1Sc1ccc2c(/C=C/c3ccccn3)n[nH]c2c1
- % inhibition: −37%

Structure (SMILES): CSc1nc(NC(=O)c2ccccc2Sc2ccc3c(/C=C/c4ccccn4)n[nH]c3c2)ns1
- % inhibition: −27%

Structure (SMILES): Cc1cc(NC(=O)c2ccccc2Sc2ccc3c(/C=C/c4ccccn4)n[nH]c3c2)sn1
- % inhibition: 19%

Structure (SMILES): CCOC(=O)N1CCC(NC(=O)c2ccccc2Sc2ccc3c(/C=C/c4ccccn4)n[nH]c3c2)CC1
- % inhibition: −24%

Structure (SMILES): Cc1ccc(NC(=O)c2ccccc2Sc2ccc3c(/C=C/c4ccccn4)n[nH]c3c2)c(F)c1
- % inhibition: 2%

Structure (SMILES): Cc1noc(NC(=O)c2ccccc2Sc2ccc3c(/C=C/c4ccccn4)n[nH]c3c2)c1C
- % inhibition of the proliferation of HUVEC [1]: 15%
- % inhibition of the proliferation of HUVEC [2]: 36%

Structure (SMILES): O=C(NCC(F)(F)C(F)(F)F)c1ccccc1Sc1ccc2c(/C=C/c3ccccn3)n[nH]c2c1
- % inhibition: −22%

Structure (SMILES): CCOCCNC(=O)c1ccccc1Sc1ccc2c(/C=C/c3ccccn3)n[nH]c2c1 [drawing 732]
- % inhibition of the proliferation of HUVEC [1]: 53%
- % inhibition of the proliferation of HUVEC [2]: 75%

Structure (SMILES): O=C(Nc1ccc2c(c1)OCO2)c1ccccc1Sc1ccc2c(/C=C/c3ccccn3)n[nH]c2c1
- % inhibition: 9%

Structure (SMILES): Cc1cccc(C(C)C)c1NC(=O)c1ccccc1Sc1ccc2c(/C=C/c3ccccn3)n[nH]c2c1
- % inhibition: −37%

Structure (SMILES): O=C(Nc1ccccc1CO)c1ccccc1Sc1ccc2c(/C=C/c3ccccn3)n[nH]c2c1
- % inhibition: 0%

Structure (SMILES): O=C(NC[C@H](O)c1ccccc1)c1ccccc1Sc1ccc2c(/C=C/c3ccccn3)n[nH]c2c1
- % inhibition: −34%

Structure (SMILES): CCC(COC)NC(=O)c1ccccc1Sc1ccc2c(/C=C/c3ccccn3)n[nH]c2c1 (stereo not drawn)
- % inhibition of the proliferation of HUVEC [1]: 1%
- % inhibition of the proliferation of HUVEC [2]: 65%

Structure (SMILES): O=C(Nc1ccccc1O)c1ccccc1Sc1ccc2c(/C=C/c3ccccn3)n[nH]c2c1
- % inhibition: 13%

Structure (SMILES): CC(C)c1cccc(C(C)C)c1NC(=O)c1ccccc1Sc1ccc2c(/C=C/c3ccccn3)n[nH]c2c1
- % inhibition: −7%

Structure (SMILES): N#Cc1nc(NC(=O)c2ccccc2Sc2ccc3c(/C=C/c4ccccn4)n[nH]c3c2)[nH]c1C#N
- % inhibition: −28%

Structure (SMILES): O=C(Nc1nc(O)nc2[nH]ncc12)c1ccccc1Sc1ccc2c(/C=C/c3ccccn3)n[nH]c2c1
- % inhibition: −43%

Structure (SMILES): CCOC(CCCNC(=O)c1ccccc1Sc1ccc2c(/C=C/c3ccccn3)n[nH]c2c1)OCC
- % inhibition: −11%

Structure (SMILES): O=C(NCCCn1ccnc1)c1ccccc1Sc1ccc2c(/C=C/c3ccccn3)n[nH]c2c1
- % inhibition of the proliferation of HUVEC [1]: 23%
- % inhibition of the proliferation of HUVEC [2]: 23%

Structure (SMILES): CN(C)CCCCNC(=O)c1ccccc1Sc1ccc2c(/C=C/c3ccccn3)n[nH]c2c1
- % inhibition of the proliferation of HUVEC [1]: 23%
- % inhibition of the proliferation of HUVEC [2]: 16%

Structure (SMILES): O=C(Nc1cccc(-c2cc[nH]n2)c1)c1ccccc1Sc1ccc2c(/C=C/c3ccccn3)n[nH]c2c1
- % inhibition: −3%

Structure (SMILES): O=C(NC1CCSC1=O)c1ccccc1Sc1ccc2c(/C=C/c3ccccn3)n[nH]c2c1 (stereo not drawn) [drawing 785]
- % inhibition of the proliferation of HUVEC [1]: 25%
- % inhibition of the proliferation of HUVEC [2]: 40%

Structure (SMILES): CCCc1cccc(NC(=O)c2ccccc2Sc2ccc3c(/C=C/c4ccccn4)n[nH]c3c2)c1
- % inhibition: −42%

Structure (SMILES): CC(=O)c1sc(NC(=O)c2ccccc2Sc2ccc3c(/C=C/c4ccccn4)n[nH]c3c2)nc1C
- % inhibition: −2%

Structure (SMILES): CCC(O)CNC(=O)c1ccccc1Sc1ccc2c(/C=C/c3ccccn3)n[nH]c2c1 (stereo not drawn)
- % inhibition of the proliferation of HUVEC [1]: 13%
- % inhibition of the proliferation of HUVEC [2]: 23%

Structure (SMILES): O=C(Nc1nc[nH]c1[N+](=O)[O-])c1ccccc1Sc1ccc2c(/C=C/c3ccccn3)n[nH]c2c1
- % inhibition: 7%
